Values of other authors in patent publication US10858388B2, “Selective progesterone receptor modulator (SPRM) regimen” (BAYER PHARMA AKTIENGESELLSCHAFT, priority 2015, dated 2020).

Legend:
fibroids = conditions: in vivo; cited from earlier work
[1] = test system: women with excessive uterine bleeding due to the presence of fibroids; conditions: 5 mg Ulipristal Acetate, cited from earlier work
endometrium = conditions: relatively low concentration, WO2009/134178; cited from earlier work

In the case of `CC#C[C@]1(O)CC[C@H]2[C@@H]3CCC4=CC(=O)CCC4=C3[C@@H](c3ccc(N(C)C)cc3)C[C@@]21C` [mifepristone], the “Size of fibroids and related symptoms” value (fibroids) is listed as “decrease the size of fibroids and related symptoms”.

For `CC(=O)O[C@]1(C(C)=O)CC[C@H]2[C@@H]3CCC4=CC(=O)CCC4=C3[C@@H](c3ccc(N(C)C)cc3)C[C@@]21C` [Ulipristal Acetate], the “≤2 ml, indicating Amenorrhea - (%), EoT 13 Weeks” value ([1]; 13 weeks) is listed as 75%, the “≤2 ml, indicating Amenorrhea - no./total no., EoT 13 Weeks” value ([1]; 13 weeks) is listed as 70/93 and the “Amenorrhea (<2 ml) at EoT (%) 12 Weeks” value ([1]; data from Jacques Donnez et al) is listed as ~75%.

In the case of `COCC(=O)[C@@]1(OC(C)=O)CC[C@H]2[C@@H]3CCC4=CC(=O)CCC4=C3[C@@H](c3ccc(N(C)C)cc3)C[C@@]21C` [CDB-4124], the Endometrium during treatment (endometrium) is given as “substantial thickening of the endometrium”.
